Experimental findings from patent US20260226034A1 (The Rockefeller University, priority 2023, published 2026) are described below.

Read-outs that look alike come from different tables or passages of the source.

This test addresses NSP14 (Severe acute respiratory syndrome coronavirus 2, UniProt P0DTD1). Description: NSP14 MTase inhibition assay at 37° C. (MTase-Glo SAH detection). The format is biochemical, SARS-CoV-2. The settings on record: 0.3 nM NSP14, 2.5 μM SAM, 2.5 μM GpppA RNA, read-out: Nsp14 Mtase Inh. IC50.

Consider `Cc1c(S(=O)(=O)c2ccc3c(cnn3C)c2)cc(C(=O)NCc2c(F)ccc3cnn(C4CC4)c23)n1CCCC(=O)O` [B.62], for which the IC50 (37° C.) is less than 0.15 nM.
Take `Cc1c(S(=O)(=O)c2ccc3[nH]ncc3c2)cc(C(=O)NCc2cccc3cnn(C)c23)n1C` [A.3]: the concentration for half-maximal inhibition (IC50) (45 min at 37° C.) was 0.35 nM.
`Cc1c(S(=O)(=O)c2ccc3[nH]ncc3c2)cc(C(=O)NCc2c(F)ccc3cnn(C4CC4)c23)n1C` [B.16]: where the note is “37° C.”, the IC50 is 0.38 nM.
Regarding `Cc1c(S(=O)(=O)c2ccc3[nH]ncc3c2)cc(C(=O)NCc2ccn3nccc3c2)n1C` [B.141], the IC50 (37° C.) came out at 16 nM.
In the case of `Cc1c(S(=O)(=O)c2ccc3[nH]ncc3c2)cc(C(=O)NCc2cccc3c(F)n[nH]c23)n1C` [B.31], the IC50 (37° C.) was determined as 5.4 nM.
Regarding `Cc1c(S(=O)(=O)c2ccc3[nH]ncc3c2)cc(C(=O)N[C@@H]2CCN(c3nccc(C#N)n3)C2)n1C` [A.45], for the setting “45 min at 37° C.”, the IC50 turned out to be 0.37 nM.
As for `Cc1c(S(=O)(=O)c2cc(F)c3[nH]ncc3c2)cc(C(=O)NCc2c(F)ccc3cnn(C4CC4)c23)n1C` [B.63], for the setting “37° C.”, the 50% inhibitory concentration (IC50) is less than 0.15 nM.
Turning to `Cc1c(S(=O)(=O)c2ccc3[nH]ncc3c2)cc(C(=O)NCc2cnc3ccccn23)n1C` [B.138], the concentration for half-maximal inhibition (IC50) (37° C.) came to 6.3 nM.
Turning to `Cc1c(S(=O)(=O)c2ccc3[nH]ncc3c2)cc(C(=O)NC2CCc3ncccc32)n1C` (stereo not drawn) [B.55], where the note is “37° C.”, the half-maximal inhibitory concentration (IC50) worked out at 5.6 nM.
`Cc1c(S(=O)(=O)c2ccc3[nH]nc(F)c3c2)cc(C(=O)NC(c2ccccc2)C(F)(F)F)n1C` (stereo not drawn) [B.122]: the IC50 (37° C.) was found to be 70 nM.
For the compound `Cc1c(S(=O)(=O)c2ccc3[nH]ncc3c2)cc(C(=O)NCc2c(F)ccc(OCCCCC(=O)O)c2F)n1C` [B.125], the IC50 (37° C.) was less than 0.15 nM.
With `Cc1c(S(=O)(=O)c2ccc3c(cnn3C)c2)cc(C(=O)NCc2c(F)ccc3ncn(C4CC4)c23)n1C` [A.4, N-[(3-cyclopropyl-5-fluoro-benzimidazol-4-yl)methyl]-1,5-dimethyl-4-(1-methylindazol-5-yl)sulfonyl-pyrrole-2-carboxamide], the IC50 (45 min at 37° C.) turned out to be 0.5 nM.
Consider `Cc1c(S(=O)(=O)c2ccc3[nH]ncc3c2)cc(C(=O)N[C@@H]2CCN(c3cccnn3)C2)n1C` [A.99], for which the IC50 (45 min at 37° C.) is 0.38 nM.
As to `Cc1c(S(=O)(=O)c2ccc3c(cnn3C)c2)cc(C(=O)NCc2c(F)ccc3cnn(C4CC4)c23)n1CCCC#N` [B.61], the IC50 (37° C.) is 2.6 nM.
Consider `Cc1c(S(=O)(=O)c2cc(Cl)c3[nH]ncc3c2)cc(C(=O)NS(=O)(=NCC(F)(F)F)c2ccccc2)n1C` (stereo not drawn) [B.195], for which, where the note is “37° C.”, the IC50 stood at 12 nM.
Take `Cc1c(S(=O)(=O)c2ccc3[nH]ncc3c2)cc(C(=O)NCc2c(F)cccc2F)n1C` [B.22]: the IC50 (37° C.) is 0.23 nM.
In the case of `Cc1c(S(=O)(=O)c2cnc3[nH]ncc3c2)cc(C(=O)NCc2cccc3cnn(C4CC4)c23)n1C` [B.37], the 50% inhibitory concentration (IC50) (37° C.) was found to be 10 nM.
With `Cc1c(S(=O)(=O)c2cc(Cl)c3[nH]ncc3c2)cc(C(=O)NCc2c(F)ccc3nnn(C4CC4)c23)n1C` [B.153], the half-inhibitory concentration (IC50) (37° C.) was less than 0.15 nM.
In the case of `Cc1c(S(=O)(=O)c2ccccc2)cc(C(=O)NCc2cccnc2N2CCCC2)n1C` [A.22], the IC50 (45 min at 37° C.) is 67 nM.
`Cc1c(S(=O)(=O)c2ccc3[nH]ncc3c2)cc(C(=O)NCc2ccc(F)c3cnn(C)c23)n1C` [B.36]: the IC50 (37° C.) was determined as 0.41 nM.
Take `Cc1c(S(=O)(=O)c2ccc3[nH]ncc3c2)cc(C(=O)NC2CCc3c(F)ccc(F)c32)n1C` (racemic) [B.70]: the 50% inhibitory concentration (IC50) (37° C.) stood at 0.95 nM.
With `Cc1c(S(=O)(=O)c2ccc3[nH]ncc3c2)cc(C(=O)N[C@@H]2CCN(Cc3ccc(F)cn3)C2)n1C` [A.104], the 50% inhibitory concentration (IC50) (45 min at 37° C.) is 4.3 nM.
For the compound `Cc1c(S(=O)(=O)c2cccc(C#N)c2)cc(C(=O)NCc2cccc3cnn(C4CC4)c23)n1C` [B.14], the half-inhibitory concentration (IC50) (37° C.) turned out to be 23.1 nM.
`Cc1c(S(=O)(=O)c2ccc3[nH]ncc3c2)cc(C(=O)NCc2cnn3ccccc23)n1C` [B.163]: the half-inhibitory concentration (IC50) (37° C.) worked out at 3 nM.
Regarding `Cc1c(S(=O)(=O)c2ccc3[nH]ncc3c2)cc(C(=O)NC2(CO)CCN(c3ncc(F)cn3)C2)n1C` (single isomer, unassigned) [A.116, 4-((1H-indazol-5-yl)sulfonyl)-N-(1-(5-fluoropyrimidin-2-yl)-3-(hydroxymethyl)pyrrolidin-3-yl)-1,5-dimethyl-1H-pyrrole-2-carboxamide], the IC50 (45 min at 37° C.) amounted to 44 nM.
Same read-out and setting: under `Cc1c(S(=O)(=O)c2ccc3[nH]ncc3c2)cc(C(=O)N[C@H]2C[C@@H](N(C)c3ncc(F)cn3)C2)n1C` [A.98] stands 0.39 nM.
As for `Cc1c(S(=O)(=O)c2ccc3[nH]nc(F)c3c2)cc(C(=O)NCc2ccccc2N2CCC(F)(F)C2)n1C` [B.39], the half-maximal inhibitory concentration (IC50) (37° C.) worked out at 5.2 nM.
As for `Cc1c(S(=O)(=O)c2ccc3[nH]ncc3c2)cc(C(=O)NCc2c(F)ccc3c2N(C)C(=O)C3)n1C` [B.52], the IC50 (37° C.) was found to be 0.15 nM.
Take `Cc1c(S(=O)(=O)c2ccc3c(cnn3C)c2)cc(C(=O)NCc2c(F)ccnc2N2CCC(C(=O)O)C2)n1C` (stereo not drawn) [B.48]: where the note is “37° C.”, the concentration for half-maximal inhibition (IC50) was found to be 0.15 nM.
On the same count and under the same terms, under `Cc1ncoc1CNC(=O)c1cc(S(=O)(=O)c2ccc3[nH]ncc3c2)c(C)n1C` [B.150] stands 14 nM; under `Cc1c(S(=O)(=O)c2ccc3[nH]ncc3c2)cc(C(=O)NCc2c(F)cc(F)cc2F)n1C` [B.86], 0.41 nM.
The same measure, in the same setting: under `Cc1c(S(=O)(=O)c2ccc3[nH]ncc3c2)cc(C(=O)NC2Cc3ccccc32)n1C` (stereo not drawn) [B.120] stands 1.2 nM; under `Cc1c(S(=O)(=O)c2ccc3[nH]nc(F)c3c2)cc(C(=O)NCc2c(F)ccc3ncn(C4CC4)c23)n1C` [B.103], less than 0.15 nM.
For `Cc1c(S(=O)(=O)c2ccc3[nH]ncc3c2)cc(C(=O)N[C@@H]2CCN(c3nccc(C(F)(F)F)n3)C2)n1C` [A.66], the half-inhibitory concentration (IC50) (45 min at 37° C.) amounted to 0.81 nM.
`COc1ccc(S(=O)(=O)c2cc(C(=O)NCc3cccc4cnn(C)c34)n(C)c2C)cn1` [A.28]: for the setting “45 min at 37° C.”, the IC50 is 119 nM.
As for `CN=S(=O)(NC(=O)c1cc(S(=O)(=O)c2ccc3[nH]ncc3c2)c(C)n1C)c1ccccc1` (racemic) [B.135, 4-(1H-indazol-5-ylsulfonyl)-1,5-dimethyl-N—(N-methyl-S-phenyl-sulfonimidoyl)pyrrole-2-carboxamide], the IC50 (37° C.) came out at 19 nM.
With `Cc1c(S(=O)(=O)c2ccc3[nH]ncc3c2)cc(C(=O)N[C@@H]2CCN(c3cnccn3)C2)n1C` [A.71], under “45 min at 37° C.”, the concentration for half-maximal inhibition (IC50) is 0.55 nM.
For the compound `Cc1c(S(=O)(=O)c2cc(F)c3ncccc3c2)cc(C(=O)NCc2cccc3cnn(C)c23)n1C` [B.17], the IC50 (37° C.) amounted to 41.8 nM.
Take `Cc1c(S(=O)(=O)c2ccc3[nH]ncc3c2)cc(C(=O)N[C@H]2Cc3ccccc32)n1C` (single isomer, unassigned) [B.170]: the IC50 (37° C.) was 2.5 nM.
On the same count and under the same terms, under `Cc1c(S(=O)(=O)c2ccc3c(=O)[nH]cnc3c2)cc(C(=O)NCc2cccc3cnn(C)c23)n1C` [B.8] stands 71 nM; under `Cc1c(S(=O)(=O)c2cc(F)c3[nH]ncc3c2)cc(C(=O)NCc2c(F)ccc3nnn(C4CC4)c23)n1C` [B.94], less than 0.15 nM.
With `Cc1c(S(=O)(=O)c2ccc3[nH]ncc3c2Cl)cc(C(=O)NCc2c(F)ccc3c2N(C)C(=O)C32CC2)n1C` [B.143], the IC50 (37° C.) is 0.4 nM.
Regarding `Cc1c(S(=O)(=O)c2ccc3[nH]ncc3c2)cc(C(=O)NCc2cccnc2N2CCC(F)(F)C2)n1C` [B.20], the IC50 (37° C.) turned out to be 0.75 nM.
The same measure, in the same setting: under `Cc1c(S(=O)(=O)c2cc(F)c3[nH]ncc3c2)cc(C(=O)NCc2cccc3cnn(C)c23)n1C` [B.9] stands 0.53 nM.
`Cc1c(S(=O)(=O)c2ccc3[nH]ncc3c2)cc(C(=O)NCc2c[nH]c(=O)c3ncccc23)n1C` [B.155]: the concentration for half-maximal inhibition (IC50) (37° C.) was determined as 0.3 nM.
For the compound `Cc1c(S(=O)(=O)c2ccc3[nH]ncc3c2)cc(C(=O)NCc2cc(F)cc3cn(C)nc23)n1C` [B.97], the concentration for half-maximal inhibition (IC50) (37° C.) amounted to 11 nM.
On to `Cc1c(S(=O)(=O)c2cc(Cl)c3[nH]ncc3c2)cc(C(=O)NCc2cccc3cnn(C4CC4)c23)n1C` [B.51], for which the half-maximal inhibitory concentration (IC50) (37° C.) was 0.22 nM.
Turning to `Cc1c(S(=O)(=O)c2cccc(C#N)c2)cc(C(=O)NCc2c(F)ccc3cnn(C)c23)n1C` [B.2], the 50% inhibitory concentration (IC50) (37° C.) was determined as 0.61 nM.
The same measure, in the same setting: under `O=C(NCc1c(F)ccc2ncn(C3CC3)c12)c1cc(S(=O)(=O)c2ccc3[nH]nc(F)c3c2)c2n1CCC2` [B.91] stands 0.28 nM; under `Cc1c(S(=O)(=O)c2ccc(C3CC3)cc2)cc(C(=O)NCc2cccc3cnn(C)c23)n1C` [B.7], 114 nM; under `Cc1c(S(=O)(=O)c2ccc3c(c2)CC(=O)N3)cc(C(=O)NCc2cccc3cnn(C)c23)n1C` [B.5], 8.7 nM.
Turning to `Cc1c(S(=O)(=O)c2ccc3[nH]nc(F)c3c2)cc(C(=O)NC2CCc3c2ccc(=O)n3C)n1C` (racemic) [B.178], the IC50 (37° C.) came to 21 nM.
With `Cc1c(S(=O)(=O)c2ccc3[nH]ncc3c2)cc(C(=O)NCc2c(F)cc(CN(C)C)cc2F)n1C` [B.68], the half-inhibitory concentration (IC50) (37° C.) turned out to be 4.1 nM.
For the compound `Cc1c(S(=O)(=O)c2ccc3[nH]ncc3c2)cc(C(=O)N[C@@H]2CCN(c3ncccc3C#N)C2)n1C` [A.37], under “45 min at 37° C.”, the 50% inhibitory concentration (IC50) is less than 0.15 nM.
With `Cc1c(S(=O)(=O)c2ccc3[nH]ncc3c2)cc(C(=O)NCc2[nH]c(=O)ccc2Cl)n1C` [B.190], the IC50 (37° C.) worked out at 3.3 nM.
On to `Cc1c(S(=O)(=O)c2ccc3[nH]ncc3c2)cc(C(=O)N[C@@H]2CCN(c3ncncc3C#N)C2)n1C` [A.121], for which, where the note is “45 min at 37° C.”, the IC50 came to 0.3 nM.
For the compound `Cc1c(S(=O)(=O)c2ccc3[nH]ncc3c2)cc(C(=O)NCc2c(F)ccc3c2N(C)C(=O)C32CC2)n1C` [B.145], the IC50 (37° C.) was less than 0.15 nM.
As for `Cc1c(S(=O)(=O)c2ccc3[nH]ncc3c2)cc(C(=O)NCc2cccc(OCC(F)(F)F)c2)n1C` [B.77], the IC50 (37° C.) was determined as 2.9 nM.
Take `Cc1c(S(=O)(=O)c2cc(C(F)(F)F)c3[nH]ncc3c2)cc(C(=O)NCc2c(F)ccc3nnn(C4CC4)c23)n1C` [B.144]: the IC50 (37° C.) was 1 nM.
For the compound `Cc1c(S(=O)(=O)c2ccc3[nH]nc(F)c3c2)cc(C(=O)N[C@@H]2CCN(c3ncc(F)cn3)C2)n1C` [A.39], the IC50 (45 min at 37° C.) was less than 0.15 nM.
With `Cc1c(S(=O)(=O)c2ccc3[nH]ncc3c2)cc(C(=O)NCc2cccc3ncn(C4CC4)c23)n1C` [B.1], the 50% inhibitory concentration (IC50) (37° C.) was 0.38 nM.
The same measure, in the same setting: under `Cc1c(S(=O)(=O)c2ccc3[nH]nc(F)c3c2)cc(C(=O)NCc2cccc3c(F)nn(C4CC4)c23)n1C` [B.80] stands 1.5 nM; under `Cc1c(S(=O)(=O)c2ccc3[nH]ncc3c2)cc(C(=O)NCc2c(F)ccc3nnn(C4CC4)c23)n1C` [B.81], less than 0.15 nM.

One may read the IC50 as the concentration that gives 50% inhibition.
